Like-named read-outs stand apart in the source and are kept apart here.
How the values were obtained:
[1] = tested on: AEA cellular uptake, U937 cells; test: [3H]-AEA cellular uptake inhibition in U937 cells; format: cell-based; conditions: Table 1, U937 cells, 100 nM AEA, read-out: AEA uptake inhibition IC50
Experimental: [^3H]-AEA Cellular Uptake
Screening for AEA cellular uptake inhibition was performed in a semi-automated procedure: Pipetting and washing steps were performed by a Biomek3000 laboratory workstation. First, required amounts of U937 cells were centrifuged at 100×g for 5 min and resuspended in RPMI (37° C.) to a final concentration of 2×10^6 cells/mL. Then, 250 μL of cell suspension (0.5×10^6 cells per sample) were transferred into AquaSil™ silanized glass vials (Chromacol 1.1-MTV) in 96-well format. After addition of 5 μL vehicle (DMSO) or compounds the cells were incubated at 37° C. for 15 min. As positive controls OMDM-2 and UCM707 were used at 10 μM in each run. The ETI-T compounds were measured at up to 7 concentrations in triplicates from 100 pM-100 μM. After pre-incubation, a mixture of 0.5 nM[ethanolamine-1-^3H]-AEA, (60 Ci/mmol) and 99.5 nM of cold AEA (final 100 nM) was added and samples were incubated at 37° C. for another 15 min. The reaction was stopped by rapid filtration over UniFilter-96 GF/C filters (PerkinElmer) pre-soaked with PBS 0.25% BSA. Cells were washed three times with 100 μL ice-cold PBS buffer containing 1% fatty acid free BSA. After drying, 45 μL MicroScint 20 scintillation cocktail (PerkinElmer, Waltham, Mass., US) was added to the wells and the plate was sealed. Radioactivity was measured by liquid scintillation counting on a PerkinElmer Wallac Trilux MicroBeta 1450 during 2 min. Non-specific binding of [^3H]AEA (100 nM) to the glass vials was never higher than 10%. IC50 values were calculated by GraphPad® by non-linear regression using the built-in log(inhibitor) vs. response-variable slope (four parameters) function.
(§1) Statistical analysis and IC50 values were determined using GraphPad® Prism 5.0 (GraphPad® Software, San Diego, Calif., US). Inhibition curves were obtained by non-linear regression using the built-in log(inhibitor) vs. response-variable slope (four parameters) function. Results were calculated as % of vehicle control of the corresponding fraction (cells, aqueous phase) if not mentioned else. In vivo results are shown in absolute values and were analyzed by a one-way ANOVA following a Tukey's multiple comparison test or student's t-test. If not indicated else the results were compared vs. vehicle (CTRL). *** P<0.001, ** P<0.01, * P<0.05, ns=not significant P>0.05.

[2] = biological target: CB1 receptor; conditions: literature values of reference substances; cited from earlier work
[3] = biological target: FAAH (Homo sapiens (Human), UniProt O00519); test: FAAH activity: hydrolysis of [3H]-AEA in U937 cell homogenates; format: biochemical; conditions: Table 2; U937 cell homogenate; read-out: FAAH inhibition IC50
Sequence of FAAH (O00519 whole entry): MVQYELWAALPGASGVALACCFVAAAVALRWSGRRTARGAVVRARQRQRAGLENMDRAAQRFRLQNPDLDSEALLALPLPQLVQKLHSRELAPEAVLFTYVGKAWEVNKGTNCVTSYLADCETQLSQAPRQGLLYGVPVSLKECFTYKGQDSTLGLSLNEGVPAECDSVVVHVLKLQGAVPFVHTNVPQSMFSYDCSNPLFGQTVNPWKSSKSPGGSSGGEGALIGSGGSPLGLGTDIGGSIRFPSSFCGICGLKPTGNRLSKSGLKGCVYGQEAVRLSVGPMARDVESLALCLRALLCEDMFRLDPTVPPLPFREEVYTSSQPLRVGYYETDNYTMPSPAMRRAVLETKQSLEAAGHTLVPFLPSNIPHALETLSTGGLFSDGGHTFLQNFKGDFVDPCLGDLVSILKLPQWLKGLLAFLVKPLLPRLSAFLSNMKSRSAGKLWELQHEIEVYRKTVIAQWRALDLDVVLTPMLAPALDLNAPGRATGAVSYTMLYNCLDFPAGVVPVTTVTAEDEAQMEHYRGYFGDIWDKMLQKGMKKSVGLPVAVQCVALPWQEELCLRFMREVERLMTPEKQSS
Experimental: Hydrolysis of [^3H]-AEA by FAAH was determined as previously described in cell homogenates of U937 cells (0.18 mg protein) (Omeir et al., 1999, Biochem Biophys Res Commun, 264, 316-20; Mor et al., 2004, J Med Chem, 47, 4998-5008). Protein amounts of cell homogenates corresponded to 0.5×10^6 cells (U937), to assure best possible comparability of IC50 values as used for the AEA cellular uptake assays. URB597 was used as positive control. Protein quantification was performed using a BCA assay (Thermo Scientific). Enzyme activity was assessed by addition of vehicle or compounds in 10 μL DMSO to 490 μL homogenate in 10 mM Tris HCl, 1 mM EDTA, 0.1% (w/v) BSA fatty acid free, pH=8 and incubation for 15 min at 37° C. After, a mixture of AEA plus [ethanolamine-1-^3H]-AEA (0.5 nM) at final 100 nM was added to the homogenates and incubated for 15 min at 37° C. The reaction was stopped by addition of 1 mL ice-cold CHCl3:MeOH (1:1) followed by vigorous vortexing. Phase separation was achieved by centrifugation at 10′000×g at 4° C. for 10 min. Radioactivity of the separated aqueous phase (upper phase) containing [^3H-ethanolamine] or [^3H-glycerol] was measured by liquid scintillation counting on a Tri-Carb 2100 TR liquid scintillation analyzer after addition of 3.5 mL Ultima Gold scintillation cocktail (PerkinElmer Life Sciences). Results are expressed as hydrolysis of tritium substrate in percent of vehicle treated control. IC50 values were calculated by GraphPad®. Data are reported as means of n=3 independent experiments performed in triplicates.
as §1

CCCCCCCC/C=C\CCCCCCCC(=O)N[C@@H](CO)c1ccc(O)cc1 [OMDM-2, (R)—N-(1-(4-hydroxyphenyl)-2-hydroxyethyl)oleamide, reference compound]
IC50 ([1]; Homo sapiens, U-937): 3.9 µM
Ki [2]: 5.1 µM

CCCCC/C=C\C/C=C\C/C=C\C/C=C\CCCC(=O)NCc1ccoc1 [UCM707, N-(3-furanylmethyl)-(5Z,8Z,11Z,14Z)-eicosatetraenamide, reference compound]
IC50 [1]: 1.9 µM
Ki [2]: > 1 µM
IC50 [3]: 8.3 µM

Source: patent US10300048B2, “Thiazolidinones as cellular anandamide uptake inhibitors and their use in the treatment of psychiatric or neurological disorders and inflammation, in particular neuroinflammation” (UNIVERSITAT BERN, priority 2014, dated 2019)
